Legend:
[1] = biological target: apolipoprotein(a), [apo(a)], apolipoproteinB-100, [apoB-100], coupling reaction that generates Lp(a) (Homo sapiens, UniProt P04114+P08519); test: LPABC screen: lipoprotein(a) biochemical coupling assay, Lp(a) content by ELISA; conditions: recombinant apo(a) 17-kringle (293 cell conditioned media) + HepG2 conditioned media, 67 minutes at 37° C., 0.3 to 50 μM compound
Experimental: The lipoprotein(a), [Lp(a)], biochemical coupling assay (LPABC) is used to characterize inhibitors of the apolipoprotein(a), [apo(a)], apolipoproteinB-100, [apoB-100], coupling reaction that generates Lp(a). Conditioned media from 293 cells (ATCC CRL-1573), permanently transfected with an apo(a) 17-kringle cDNA expression construct (pcDNA-AMP, In Vitrogen, Carlsbad, Calif.) using standard molecular biology techniques, was used as a source of recombinant apo(a) is diluted 1:3 with phosphate buffered saline (PBS) and 90 μL is pipetted into each well of a 96-well plate and placed into 37° C. incubator for 10 minutes. Twenty microliters of a 0.3 to 50 μM solution of a compound of the present invention in PBS is added to the warmed plate. Ninety microliters of HepG2 (ATCC HB-8065) cell conditioned media diluted 1:3 with PBS is added to the apo(a)/compound mixture and mixed by pipetting up and down 5 times. The reaction is incubated for 67 minutes in a 37° C. incubator. A 100 μL aliquot of the reaction is removed and assayed for its Lp(a) content by an enzyme linked immunosorbent assay (ELISA).

[2] = test system: Lp(a) production in HepG2^K17 cells; test: LPA3 screen: inhibition of Lp(a) production in transfected HepG2 cells, Lp(a) in media by ELISA; type: cell-based; conditions: Homo sapiens, 8 hours incubation, 0.3 to 50 μM compound, Lp(a) normalized for total protein
Experimental: The LPA3 screen is used to identify compounds that inhibit Lp(a) production. This screen employs permanently transfected HepG2 cells (HepG2^K17) that are generated using an apo(a) 17-kringle cDNA expression construct (pcDNA-AMP, In Vitrogen, Carlsbad, Calif.) in accordance with methods that are well-known in molecular biology.
HepG2^K17 cells are seeded in 96-well plates at a density of 75,000 cells per well in 0.25 mL of Dulbecco's Modified Eagle Media (DMEM) containing 10% fetal bovine serum (FBS). Seeded plates are incubated overnight in a 37° C., 5% CO2/95% O2 incubator. The media is removed, replaced with (1) fresh media, or (2) fresh media plus 0.3 to 50 μM of a compound of the present invention in 20 μL of PBS, and the plates returned to the incubator for 8 hours. After the additional 8 hours of incubation, Lp(a) is assayed in the media by ELISA. Cells are digested with 0.5N NaOH overnight and assayed for total protein. Lp(a) values are normalized for total protein content.

SMILES	IC50 [1] [µM]	IC50 [2] [µM]	melting point [°C]
CC(C)(C)c1cc(CN(c2cccnc2)S(=O)(=O)c2ccc(-c3ccccn3)s2)cc(C(C)(C)C)c1O [Example 1, 5-Pyridin-2-yl-thiophene-2-sulfonic Acid (3,5-di-tert-butyl-4-hydroxy-benzyl)-pyridin-3-yl-amide]	1.66	–	–
CCOC(=O)C(c1cc(C(C)(C)C)c(O)c(C(C)(C)C)c1)N(CC1CCCCC1)S(C)(=O)=O (stereo not drawn) [Example 2, (Cyclohexylmethyl-methanesulfonyl-amino)-(3,5-Di-tert-butyl-4-hydroxy-phenyl)-acetic Acid Ethyl Ester]	1.92	27.2	–
Cc1ccc(S(=O)(=O)N(Cc2cc(C(C)(C)C)c(O)c(C(C)(C)C)c2)c2cccnc2)cc1 [Example 3, N-(3,5-Di-tert-butyl-4-hydroxy-benzyl)-4-methyl-N-pyridin-3-yl-benzenesulfonamide]	3.94	6.9	121 to 123
CC(C)(C)c1cc(CN(c2cccnc2)S(=O)(=O)c2ccc(F)cc2)cc(C(C)(C)C)c1O [Example 4, N-(3,5-Di-tert-butyl-4-hydroxy-benzyl)-4-fluoro-N-pyridin-3-yl-benzenesulfonamide]	2.6	7.5	–
CC(C)(C)c1cc(CN(c2cccnc2)S(=O)(=O)c2ccc([N+](=O)[O-])cc2)cc(C(C)(C)C)c1O [Example 5, N-(3,5-Di-tert-butyl-4-hydroxy-benzyl)-4-nitro-N-pyridin-3-yl-benzenesulfonamide]	2.6	9.4	159 to 160
COc1ccc(N(Cc2cc(C(C)(C)C)c(O)c(C(C)(C)C)c2)S(=O)(=O)c2cccs2)cn1 [Example 6, Thiophene-2-sulfonic Acid (3,5-di-tert-butyl-4-hydroxy-benzyl)-6-methoxy-pyridin-3-yl-amide]	3.15	–	–
CC(C)(C)c1cc(CN(c2cccnc2)S(=O)(=O)c2cccs2)cc(C(C)(C)C)c1O [Example 7, Thiophene-2-sulfonic Acid (3,5-di-tert-butyl-4-hydroxy-benzyl)-pyridin-3-yl-amide]	3.5	8.9	118 to 120
CC(=O)Nc1ccc(S(=O)(=O)N(Cc2cc(C(C)(C)C)c(O)c(C(C)(C)C)c2)c2cccnc2)cc1 [Example 8, N-(3,5-Di-tert-butyl-4-hydroxy-benzyl)-4-acetamido-N-pyridin-3-yl-benzenesulfonamide]	3.5	12.5	167 to 169
COc1ccc(S(=O)(=O)N(Cc2cc(C(C)(C)C)c(O)c(C(C)(C)C)c2)c2cccnc2)cc1 [Example 9, N-(3,5-Di-tert-butyl-4-hydroxy-benzyl)-4-methoxy-N-pyridin-3-yl-benzene Sulfonamide]	3.7	5.8	142 to 143
CC(C)(C)c1cc(CN(c2cccnc2)S(=O)(=O)c2cccc([N+](=O)[O-])c2)cc(C(C)(C)C)c1O [Example 10, N-(3,5-Di-tert-butyl-4-hydroxy-benzyl)-3-nitro-N-pyridin-3-yl-benzenesulfonamide]	4	7.4	99 to 107
CC(C)(C)c1cc(CN(c2cccnc2)S(=O)(=O)c2ccccc2)cc(C(C)(C)C)c1O [Example 11, N-(3,5-Di-tert-butyl-4-hydroxy-benzyl)-3-N-pyridin-3-yl-benzenesulfonamide]	4.12	16.2	143 to 145
CC(C)(C)c1cc(CN(c2cccnc2)S(C)(=O)=O)cc(C(C)(C)C)c1O [Example 12, N-(3,5-Di-tert-butyl-4-hydroxy-benzyl)-N-pyridin-3-yl-methanesulfonamide]	5.58	41.2	133 to 134
CC(C)(C)c1ccc(S(=O)(=O)N(Cc2cc(C(C)(C)C)c(O)c(C(C)(C)C)c2)c2cccnc2)cc1 [Example 13, N-(3,5-Di-tert-butyl-4-hydroxy-benzyl)-4-tert-butyl-N-pyridin-3-yl-benzenesulfonamide]	11.8	23.6	155 to 156
Cc1ccc(S(=O)(=O)N(Cc2cc(C(C)(C)C)c(O)c(C(C)(C)C)c2)c2cccnc2Cl)cc1 [Example 14, N-(2-Chloro-pyridin-3-yl)-N-(3,5-di-tert-butyl-4-hydroxy-benzyl)-4-methyl-benzenesulfonamide]	2.1	–	117 to 119
CC(C)(C)c1cc(CN(c2cccnc2)S(=O)(=O)c2ccccc2Br)cc(C(C)(C)C)c1O [Example 15, N-(3,5-di-tert-butyl-4-hydroxybenzyl)-2-bromo-N-pyridin-3-yl-benzenesulfonamide]	2.43	–	105 to 107
Cc1ccc(S(=O)(=O)N(Cc2cc(C(C)(C)C)c(O)c(C(C)(C)C)c2)c2ccc(Cl)nc2)cc1 [Example 16, N-(6-Chloro-pyridin-3-yl)-N-(3,5-di-tert-butyl-4-hydroxybenzyl)-4-methyl-benzenesulfonamide]	2.1	–	152 to 153
CC(C)(C)c1cc(CN(c2cccnc2)S(=O)(=O)c2ccc3ccccc3c2)cc(C(C)(C)C)c1O [Example 17, N-(3,5-di-tert-butyl-4-hydroxybenzyl)-2-naphthalene-N-pyridin-3-yl-sulfonamide]	7.1	–	160 to 171
COc1ccc(N(Cc2cc(C(C)(C)C)c(O)c(C(C)(C)C)c2)S(=O)(=O)c2ccc(C)cc2)cn1 [Example 18, N-(3,5-di-tert-butyl-4-hydroxy-benzyl)-N-(6-methoxy-pyridin-3-yl)-4methyl-benzenesulfonamide]	2.42	–	127 to 129
CC(C)(C)c1cc(CN(c2cccnc2)S(=O)(=O)c2cccc(Br)c2)cc(C(C)(C)C)c1O [Example 19, N-(3,5-di-tert-butyl-4-hydroxybenzyl)-3-bromo-N-pyridin-3-yl-benzenesulfonamide]	2.76	–	129 to 131

Reference: patent US6458815B2, “Sulfonamide compounds and methods of treating atherosclerosis and restenosis” (Warner-Lambert Company, priority 1998, dated 2002)
